Laboratory results as given in patent US20160324153A1, “HERBICIDAL MIXTURE COMPRISING IMAZETHAPYR AND CYCLOXYDIM” (BASF AGROCHEMICAL PRODUCTS, priority 2014, published 2016).

How the values were obtained:
Type in all cases: in vivo
[1] = test system: ECHCO (Echinochloa colonum); assay: Post emergence treatment, herbicidal activity against ECHCO
Description: (§1) Synergism can be described as an interaction where the combined effect of two or more compounds is greater than the sum of the individual effects of each of the compounds. The presence of a synergistic effect in terms of percent control, between two mixing partners (X and Y) can be calculated using the Colby equation (Colby, S. R., 1967, Calculating Synergistic and Antagonistic Responses in Herbicide Combinations, Weeds, 15, 21-22): When the observed combined control effect is greater than the expected (calculated) combined control effect (E), then the combined effect is synergistic. […] However, the weed control afforded by the compounds, mixtures or compositions is not limited to these species. The analysis of synergism or antagonism between the mixtures or compositions was determined using Colby's equation. Analogously, the Colby's equation can be used to determine synergism of 3-way and higher mixtures. Post Emergence Treatment by the Mixture of Imazethapyr+Cycloxydim Post Emergence Treatment by the Mixture of (Imazethapyr+Imazamox)+Cycloxydim

[2] = test system: ORYSA (Orysa sativa); assay: Post emergence treatment, herbicidal activity against ORYSA
Description: as §1

[3] = test system: LEFFA (Leptochloa fusca); assay: Post emergence treatment, herbicidal activity against LEFFA; settings: Example 1, post emergence
Description: as §1, with “Imazethapyr+Cycloxydim” for “Imazethapyr+Cycloxydim Post Emergence Treatment by the Mixture of (Imazethapyr+Imazamox)+Cycloxydim”

[4] = test system: PHACA (Phalaris canariensis); assay: Post emergence treatment, herbicidal activity against PHACA; settings: Example 2, post emergence
Description: as §1, with “of” for “of Imazethapyr+Cycloxydim Post Emergence Treatment by the Mixture of”

[5] = test system: BRAPL (Brachiaria plantaginea); assay: Post emergence treatment, herbicidal activity against BRAPL; settings: Example 2, post emergence; Cycloxydim 3 g ai/ha
Description: as §1, with “of” for “of Imazethapyr+Cycloxydim Post Emergence Treatment by the Mixture of”

[6] = Example 1, post emergence, Cycloxydim 6 g ai/ha
[7] = Example 1, post emergence, Imazethapyr 7.5 g ai/ha

SMILES: CCCC(=NOCC)C1=C(O)CC(C2CCCSC2)CC1=O (racemic) [Cycloxydim, (5RS)-2-[(EZ)-1-(Ethoxyimino)butyl]-3-hydroxy-5-[(3RS)-thian-3-yl]cyclohex-2-en-1-one]
- Herbicidal activity against ECHCO, Found [1, 6]: 50
- Herbicidal activity against ECHCO, Found ([1]; Example 2, post emergence, Cycloxydim 3 g ai/ha): 0
- Herbicidal activity against ORYSA, Found [2, 6]: 20
- Herbicidal activity against ORYSA, Found ([2]; Example 2, post emergence, Cycloxydim 6 g ai/ha): 20
- Herbicidal activity against LEFFA, Found ([3]; Cycloxydim 6 g ai/ha): 40
- Herbicidal activity against PHACA, Found ([4]; the 3rd table, Cycloxydim 3 g ai/ha): 0
- Herbicidal activity against PHACA, Found ([4]; the 5th table, Cycloxydim 3 g ai/ha): 0
- Herbicidal activity against PHACA, Found ([4]; Cycloxydim 6 g ai/ha): 60
- Herbicidal activity against BRAPL, Found [5]: 0

SMILES: CCc1cnc(C2=NC(C)(C(C)C)C(=O)N2)c(C(=O)O)c1 (racemic) [Imazethapyr, 5-ethyl-2-[(RS)-4-isopropyl-4-methyl-5-oxo-2-imidazolin-2-yl]nicotinic acid]
- Herbicidal activity against ECHCO, Found [1, 7]: 85
- Herbicidal activity against ORYSA, Found [2, 7]: 50
- Herbicidal activity against LEFFA, Found ([3]; Imazethapyr 7.5 g ai/ha): 55
